Measurements published in patent US20230014907A1, “INHIBITORS OF APOL1 AND METHODS OF USING SAME” (Vertex Pharmaceuticals Incorporated, priority 2020, published 2023).

Experiments:
G1 APOL1 = target: T1, G1 APOL1 (Homo sapiens, UniProt O14791, I384M/S342G); test: Acute APOL1 Thallium Assay with Inducible Stable Clones of HEK 293 Cells; assay type: cell-based; conditions: HEK 293 inducible stable clones, G1 APOL1; read-out: Thallium Assay (IC50)
T1 construct: expressed in transfected cells
T1 sequence (O14791 28-398 S342G/I384M): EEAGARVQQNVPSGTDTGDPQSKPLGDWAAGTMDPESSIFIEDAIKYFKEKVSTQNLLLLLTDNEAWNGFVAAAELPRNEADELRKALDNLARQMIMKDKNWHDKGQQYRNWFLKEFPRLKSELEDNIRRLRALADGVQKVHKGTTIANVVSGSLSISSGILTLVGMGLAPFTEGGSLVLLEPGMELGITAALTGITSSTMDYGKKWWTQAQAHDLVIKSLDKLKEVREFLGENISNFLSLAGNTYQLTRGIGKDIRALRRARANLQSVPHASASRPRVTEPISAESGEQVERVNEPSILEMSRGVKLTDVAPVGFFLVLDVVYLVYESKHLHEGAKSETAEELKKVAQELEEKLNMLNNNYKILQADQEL
Summary of the method: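 HEK293 T-Rex cells with a stable tetracycline-inducible G1 APOL1 construct (clone DC3.25) were induced with tetracycline at plating, 26000 cells per well, then incubated at 37° C. They were loaded with an AM-ester thallium-sensitive dye and stimulated with Tl+. The fluorescence rise measured Tl+ influx through APOL1 pores.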

APOL1 G1 Protein = target: T2, APOL1 G1 Protein (Homo sapiens, UniProt O14791, I384M/S342G); test: Trypanosoma brucei brucei Lysis Assay Using APOL1 Recombinant Protein (AlamarBlue viability); assay type: cell-based; conditions: read-out: Trypanosomal Assay (IC50)
T2 sequence (O14791 28-398 S342G/I384M): T1 sequence (O14791 28-398 S342G/I384M)
Source text: Trypanosoma brucei brucei is a blood stream parasite to which human, gorillas and baboon are immune due to the presence of the APOL1 protein in their HDL particles. The protein is uptaken by the parasite via the TbHpHb receptor located in its flagellar pocket and is bonded by the Hpr protein contained in the HDL particles which triggers the receptor endocytosis by the parasite.
Following endocytosis, the formed vesicle containing the HDL particle matures from early to late endosome, and subsequently to lysosome. The concomitant pH change in the lumen of the vesicle triggers the insertion of the APOL1 protein into the membrane of the late endosome/lysosome and hereby triggers lysosomal membrane permeabilization and as a further downstream event, trypanosome lysis. Trypanosoma brucei brucei is sensitive to lysis by all three APOL1 variants (G0, G1, and G2).
The Trypanosoma brucei brucei lysis assay is a lysis assay of the parasite using recombinant APOL1 protein variant followed by a fluorescent detection method of viability by the addition of AlamarBlue reagent to the assay well, a general metabolic redox indicator (AlamarBlue assay).
Briefly, the AlamarBlue active compound, the resazurin, a blue, water soluble, non-toxic and cell permeable molecule, which can be followed by absorbance, is reduced by various metabolic pathways into resorufin, a red compound which can be followed by either absorbance or fluorescence. The assay allows the calculation of the percent viability (percent of living Trypanosomes remaining in each well) at the end of a lysis relative to the untreated condition by interpolation of fluorescent values (FLU) on a standard curve with a known amount of seeded trypanosome/well.
Trypanosoma brucei brucei (ATCC, Cat. No. PRA-382) • Lister 427 VSG 221 bloodstream form.
Thaw/Expansion Media (ATCC Medium 2834 Modified HMI-9 Medium)
Assay Media (No Phenol Red/No FBS): Make on Day of Use
Hypoxanthine Stock (100×)-9 (10×)
Equipment • E1-Clip Tip pipette 12 channel adjustable 2-125 μL, Cat. No. 4672070BT • ThermoFisher MultiDrop 384, Cat. No. 5840300 • Multidrop • Agilent Bravo, Cat. No. G5409A • Bravo • SpectraMax M5
Trypanosoma brucei brucei Culture
Step 2, Day 4 • Centrifuge at 800×g for 5 minutes at room temperature. • Resuspend in 1 mL media. • Make a 1:25 fold dilution (10 μL/240 μL media). • Count on a hemocytometer (after adding parasites). • Let sit for 1-2 minutes for the parasites to settle. • Count should be approximately 100 viable motile parasites/16 grid or approximately 25×10^6 parasites/flask. • Passage the parasites by adding 1×10^6 parasites/T75 flask in 20 mL media. • Passage the parasites by adding 2.33×10^6 parasites/T175 flask in 46.6 mL media. • For every T75 flask should make enough for approximately 1.5×384 well assay plates. • For every T175 flask should make enough for approximately 3.8×384 well assay plates.
Step 3, Day 6 • Centrifuge at 800×g for 5 minutes. • Resuspend in 3 mL assay media (No phenol red, no FBS) per 75 starting flask. • Resuspend in 7 mL assay media (No phenol red, no FBS) per 175 flask • Make a 1:25 fold dilution. • Count by hemocytometer. • Every T75 flask set up should have approximately 75×10^6 parasites/flask (verify doubling time=8.7 hours±1 hour). • Every T175 flask set up should have approximately 175×10^6 parasites/flask (verify doubling time=8.7 hours±1 hour). • Require 46×10^6 parasites per 384 well plate (at 120,000 parasites per well). […]

Compound	IC50 (G1 APOL1) [nM]	IC50 (APOL1 G1 Protein) [nM]
O=C(CCc1c(-c2ccc(F)cc2)[nH]c2c(F)cc(F)cc12)NC1(CO)CC1 [Compound 131]	< 250	< 250
Cc1cc(NC(=O)CCc2c(-c3ccc(F)cc3)[nH]c3c(F)cc(F)cc23)no1 [Compound 180]	> 1000	> 1000
O=C(CCc1c(-c2ccc(F)cc2)[nH]c2c(F)cc(F)cc12)NC1CCCNC1=O (centres unmarked) [Compound 113]	> 1000	250 to 1000
CC(NC(=O)CCc1c(-c2ccc(F)cc2)[nH]c2c(F)cc(F)cc12)c1ccn(C)n1 (racemic) [Compound 133]	250 to 1000	> 1000
CC(C)(CO)NC(=O)CCc1c(-c2ccc(F)cc2)[nH]c2c(F)cc(F)cc12 [Compound 103]	250 to 1000	250 to 1000
CN(CCO)C(=O)CCc1c(-c2ccc(F)cc2)[nH]c2c(F)cc(F)cc12 [Compound 143]	> 1000	> 1000
O=C(CCc1c(-c2ccc(F)cc2)[nH]c2ccc(F)cc12)NC1(CO)CCC1 [Compound 4]	< 250	< 250
C[C@H](O)[C@H](CO)NC(=O)CCc1c(-c2ccc(F)cc2)[nH]c2ccc(F)cc12 [Compound 28]	250 to 1000	> 1000
O=C(CCc1c(-c2ccc(F)cc2)[nH]c2c(F)cc(F)cc12)N1CCC[C@H]1CO [Compound 145]	> 1000	> 1000
OCCc1c(-c2ccc(F)cc2)[nH]c2c(F)cc(F)cc12 [Compound 433, 2-[5,7-difluoro-2-(4-fluorophenyl)-1H-indol-3-yl]ethanol]	< 250	< 250
O=C(CCc1c(-c2ccc(F)cc2)[nH]c2c(F)cc(F)cc12)Nc1ccc[nH]c1=O [Compound 175]	> 1000	> 1000
O=C(CCc1c(-c2ccc(F)cc2)[nH]c2ccc(F)cc12)NC1COC1 [Compound 69]	> 1000	> 1000
CC(NC(=O)CCc1c(-c2ccc(F)cc2)[nH]c2ccc(F)cc12)C(N)=O (racemic) [Compound 13]	250 to 1000	> 1000
O=C(CCc1c(-c2ccc(F)cc2)[nH]c2c(F)cc(F)cc12)Nc1cccnc1 [Compound 174]	> 1000	> 1000
O=C(CCc1c(-c2ccc(F)cc2)[nH]c2ccc(F)cc12)NC1CC1c1ccc(F)cc1 (centres unmarked) [Compound 44]	> 1000	> 1000
C[C@@H](CO)NC(=O)CCc1c(-c2ccc(F)cc2)[nH]c2ccc(F)cc12 [Compound 31]	> 1000	250 to 1000
NCCCc1c(-c2ccc(F)cc2)[nH]c2c(F)cc(F)cc12 [Compound 504, 3-[5,7-difluoro-2-(4-fluorophenyl)-1H-indol-3-yl]propan-1-amine]	250 to 1000	< 250
CS(=O)(=O)CNC(=O)CCc1c(-c2ccc(F)cc2)[nH]c2c(F)cc(F)cc12 [Compound 173]	> 1000	> 1000
CC1(C)COC(=O)C1NC(=O)CCc1c(-c2ccc(F)cc2)[nH]c2c(F)cc(F)cc12 (centres unmarked) [Compound 193]	> 1000	> 1000
Cc1ccc(CNC(=O)CCc2c(-c3ccc(F)cc3)[nH]c3c(F)cc(F)cc23)o1 [Compound 177]	> 1000	> 1000
CC1(NC(=O)CCc2c(-c3ccc(F)cc3)[nH]c3c(F)cc(F)cc23)CCOC1 (racemic) [Compound 152]	> 1000	> 1000

Compound	IC50 (G1 APOL1) [nM]	IC50 (APOL1 G1 Protein) [nM]
O=C(CCc1c(-c2ccc(F)cc2)[nH]c2ccc(F)cc12)NC(CO)CO [Compound 22]	250 to 1000	250 to 1000
Nc1ccnn1C(=O)CCc1c(-c2ccc(F)cc2)[nH]c2ccc(F)cc12 [Compound 6]	250 to 1000	250 to 1000
CC(=O)NCCCCc1c(-c2ccc(F)cc2)[nH]c2c(F)cc(F)cc12 [Compound 512, N-[4-[5,7-difluoro-2-(4-fluorophenyl)-1H-indol-3-yl]butyl]acetamide]	250 to 1000	250 to 1000
O=C(CCc1c(-c2ccc(F)cc2)[nH]c2ccc(F)cc12)NC(CO)C1CC1 (centres unmarked) [Compound 21]	250 to 1000	250 to 1000
O=C(CCc1c(-c2ccc(F)cc2)[nH]c2c(F)cc(F)cc12)NC(CO)(CO)CO [Compound 95]	250 to 1000	250 to 1000
C[C@H](O)CNC(=O)CCc1c(-c2ccc(F)cc2)[nH]c2ccc(F)cc12 [Compound 78]	> 1000	> 1000
O=C(CCc1c(-c2ccc(F)cc2)[nH]c2c(F)cc(F)cc12)N[C@H](CO)C(F)(F)F [Compound 128]	–	250 to 1000
O=C(CCc1c(-c2ccc(F)cc2)[nH]c2ccc(F)cc12)NC1CCCNC1=O (centres unmarked) [Compound 26]	> 1000	> 1000
CC(C)(CO)NC(=O)CCc1c(-c2ccc(F)cc2)[nH]c2ccc(F)cc12 [Compound 19]	250 to 1000	250 to 1000
CS(=O)(=O)NC(=O)CCc1c(-c2ccc(F)cc2)[nH]c2c(F)cc(F)cc12 [Compound 93, 3-[5,7-difluoro-2-(4-fluorophenyl)-1H-indol-3-yl]-N-methylsulfonyl-propanamide]	> 1000	> 1000
CC(C)C(CO)NC(=O)CCc1c(-c2ccc(F)cc2)[nH]c2ccc(F)cc12 (centres unmarked) [Compound 75]	> 1000	> 1000
O=C(CCc1c(-c2ccc(F)cc2)[nH]c2c(F)cc(F)cc12)N[C@H]1COC[C@@H]1O [Compound 181]	> 1000	> 1000
O=C(CCc1c(-c2ccc(F)cc2)[nH]c2ccc(F)cc12)NC(CO)CF (centres unmarked) [Compound 90]	250 to 1000	< 250
O=C(CCc1c(-c2ccc(F)cc2)[nH]c2c(F)cc(F)cc12)NC1CCCC1=O (centres unmarked) [Compound 101]	< 250	< 250
CC(C)(C)OC(=O)N[C@H]1C[C@H](NC(=O)CCc2c(-c3ccc(F)cc3)[nH]c3ccc(F)cc23)C1 [Compound 57]	> 1000	> 1000
O=C(CCc1c(-c2ccc(F)cc2)[nH]c2c(F)cc(F)cc12)NC1(CO)CCC1 [Compound 91, 3-[5,7-difluoro-2-(4-fluorophenyl)-1H-indol-3-yl]-N-[1-(hydroxymethyl)-cyclobutyl]propanamide]	< 250	< 250
CC(C)C[C@@H](CO)NC(=O)CCc1c(-c2ccc(F)cc2)[nH]c2c(F)cc(F)cc12 [Compound 158]	> 1000	> 1000
O=C(CCc1c(-c2ccc(F)cc2)[nH]c2ccc(F)cc12)N1CC(O)C1 [Compound 58]	> 1000	> 1000
NCCCCc1c(-c2ccc(F)cc2)[nH]c2c(F)cc(F)cc12 [Compound 511, 4-[5,7-difluoro-2-(4-fluorophenyl)-1H-indol-3-yl]butan-1-amine]	< 250	< 250
CON(C)C(=O)CCc1c(-c2ccc(F)cc2)[nH]c2ccccc12 [Compound 237]	–	> 1000
